Read-outs that look alike come from different tables or passages of the source.
Assay: Distribution coefficient of water-octanol (logP), OECD Test Guideline 107
Format: physicochemical

Row | SMILES | logP (octanol/water) | also measured
1 | CCCCC(CC)COCC(O)CO (stereo not shown) [3-(2-ethylhexyloxy)-1,2-propanediol] | – | logP: 2.53
2 | CCCCOCC(O)CO (stereo not shown) [3-butoxy-1,2-propanediol] | 0.59 | –
3 | OCC(O)COC1CCCCC1 (stereo not shown) [3-cyclohexyloxy-1,2-propanediol] | 1 | –
4 | CC1CCC(C(C)C)C(OCC(O)CO)C1 (stereo not shown) [3-menthyloxy-1,2-propanediol] | 2.6 | –
5 | CCCC(=O)OCC(O)CO (stereo not shown) [butyric acid 2,3-dihydroxypropyl] | – | logP (distribution coefficient of water-octanol): -0.21
6 | CC(=O)OCC(COC(C)=O)OC(C)=O [glycerol triacetate] | -0.24 | –
7 | CCCCCC(=O)OCC(O)CO (stereo not shown) [hexanoic acid 2,3-dihydroxypropyl] | – | logP (distribution coefficient of water-octanol): 0.85
8 | C=C(C)C(=O)OCC(O)CO (stereo not shown) [methacrylic acid 2,3-dihydroxypropyl] | – | logP (distribution coefficient of water-octanol): −0.12
9 | CCC(=O)OCC(O)CO (stereo not shown) [propionic acid 2,3-dihydroxypropyl] | – | logP (distribution coefficient of water-octanol): −0.75

Further lines, with some results ahead:

Row | logP (octanol/water) | SMILES | also measured
10 | 0.75 | C#CCOCC(O)CO (stereo not shown) [3-(2-propynyloxy)-1,2-propanediol] | –
11 | -0.46 | C=CCOCC(O)CO (stereo not shown) [3-allyloxy-1,2-propanediol] | –
12 | -0.43 | CCOCC(O)CO (stereo not shown) [3-ethoxy-1,2-propanediol] | –
13 | 0.36 | CCCCCCOCC(O)CO (stereo not shown) [3-hexyloxy-1,2-propanediol] | –
14 | 0.94 | CC(C)CCOCC(O)CO (stereo not shown) [3-isopentyloxy-1,2-propanediol] | –
15 | -0.62 | COCC(O)CO (stereo not shown) [3-methoxy-1,2-propanediol] | –
16 | 0.9 | CCCCCOCC(O)CO (stereo not shown) [3-pentyloxy-1,2-propanediol] | –

Reference: patent publication US9695330B2, “Liquid composition, pigment dispersion liquid, and aqueous ink composition for ink jet recording” (Seiko Epson Corporation, priority 2015, dated 2017)
